In US12257246B2, “Composition of 2,4,6-trifluoro-n-[6-(1-methyl-piperidin-4-carbonyl)-pyridin-2-yl[-benzamide” (CoLucid Pharmaceuticals, Inc., priority 2009, dated 2025):

Tests used:
rabbit saphenous vein [1] = assay: Rabbit saphenous vein contraction
[2] = molecular target: T1, Human 5-HT1F receptor transfected NIH3T3 cells (Homo sapiens, UniProt P30939); assay: Inhibition of forskolin stimulated cAMP formation; format: cell-based
T1 construct: expressed in transfected cells; host or cells: NIH3T3 cells
T1 sequence (P30939 1-366): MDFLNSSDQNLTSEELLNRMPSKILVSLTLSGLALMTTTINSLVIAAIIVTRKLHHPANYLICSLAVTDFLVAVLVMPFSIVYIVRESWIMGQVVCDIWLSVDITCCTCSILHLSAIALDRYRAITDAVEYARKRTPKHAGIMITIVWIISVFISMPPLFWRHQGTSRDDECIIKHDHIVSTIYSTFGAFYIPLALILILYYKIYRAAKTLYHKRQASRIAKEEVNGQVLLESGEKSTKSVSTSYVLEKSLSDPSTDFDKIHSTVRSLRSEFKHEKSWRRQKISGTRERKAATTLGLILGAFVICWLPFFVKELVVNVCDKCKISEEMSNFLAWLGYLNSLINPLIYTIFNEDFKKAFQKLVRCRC
Protocol: As was reported by R. L. Weinshank, et al., WO93/14201, the 5-HT1F receptor is functionally coupled to a G-protein as measured by the ability of serotonin and serotonergic drugs to inhibit forskolin stimulated cAMP production in NIH3T3 cells transfected with the 5-HT1F receptor. Adenylate cyclase activity was determined using standard techniques. A maximal effect is achieved by serotonin. An Emax is determined by dividing the inhibition of a test compound by the maximal effect and determining a percent inhibition. N. Adham, et al., supra; R. L. Weinshank, et al., Proceedings of the National Academy of Sciences (USA), 89:3630-3634, 1992; and the references cited therein.
Human 5-HT1F receptor transfected NIH3T3 cells (estimated Bmax from one point competition studies=488 fmol/mg of protein) were incubated in DMEM, 5 mM theophylline, 10 mM HEPES (4-[2-hydroxyethyl]-1-piperazineethanesulfonic acid) and 10 μM pargyline for 20 minutes at 37° C., 5% CO2. Drug dose-effect curves were then conducted by adding 6 different final concentrations of drug, followed immediately by the addition of forskolin (10 μM). Subsequently, the cells were incubated for an additional 10 minutes at 37° C., 5% CO2. The medium was aspirated and the reaction was stopped by the addition of 100 mM HCl. […] Radioactivity was quantified using a Packard COBRA Auto Gamma counter, equipped with data reduction software.

[3] = system: healthy male and female subjects; assay: Oral safety and tolerability, Study 1 and Study 2; format: in vivo, human; design: Subjects with Nausea: dose or concentration left out as unconfirmed
rabbit saphenous vein [4] = conditions: concentrations up to 0.1 mM; cited from earlier work
[5] = system: neuronal protein extravasation; assay: Protein extravasation assay (trigeminal ganglion stimulation); format: in vivo, rats or guinea pigs; conditions: intravenous
Protocol: Harlan Sprague-Dawley rats (225-325 g) or guinea pigs from Charles River Laboratories (225-325 g) were anesthetized with sodium pentobarbital intraperitoneally (65 mg/kg or 45 mg/kg respectively) and placed in a stereotaxic frame (David Kopf Instruments) with the incisor bar set at −3.5 mm for rats or −4.0 mm for guinea pigs. Following a midline sagital scalp incision, two pairs of bilateral holes were drilled through the skull (6 mm posterially, 2.0 and 4.0 mm laterally in rats; 4 mm posteriorly and 3.2 and 5.2 mm laterally in guinea pigs, all coordinates referenced to bregma). Pairs of stainless steel stimulating electrodes, insulated except at the ends (Rhodes Medical Systems, Inc.), were lowered through the holes in both hemispheres to a depth of 9 mm (rats) or 10.5 mm (guinea pigs) from dura. […]
A fluorescence microscope (Zeiss) equipped with a grating monchromator and a spectrophotometer was used to quantify the amount of Evans Blue dye in each sample. An excitation wavelength of approximately 535 nm was utilized and the emission intensity at 600 nm was determined. […] This facilitated the computer-controlled movement of the stage with fluorescence measurements at 25 points (500 μm steps) on each dural sample. The mean and standard deviation of the measurements were determined by the computer. […]

[6] = Study 2 Part 1, 200 mg tablet (N = 28)
[7] = Study 2 Part 1, 200 mg tablet (N = 29)
[8] = Study 2 Part 2, 50 mg tablet (N = 28)
[9] = Study 2 Part 2, 400 mg tablet (N = 28)

Structure (SMILES): CN1CCC(C(=O)c2cccc(NC(=O)c3c(F)cc(F)cc3F)n2)CC1 [Compound I, 2,4,6-trifluoro-N-[6-(1-methyl-piperidin-4-ylcarbonyl)-pyridin-2-yl]-benzamide]
- vasoconstrictive activity (rabbit saphenous vein [1]): not be significantly vasoconstrictive
- functional activity in cAMP assay [2]: agonist of the 5-HT1F receptor
- Subjects with Blurred vision [3, 6]: 0 n
- Subjects with Feeling hot [3, 6]: 0 n
- Subjects with Palpitations [3, 6]: 0 n
- Subjects with Blurred vision [3, 7]: 0 n
- Subjects with Diarrhea [3, 7]: 0 n
- Subjects with Feeling hot [3, 7]: 0 n
- Subjects with Headache [3, 7]: 0 n
- Subjects with Palpitations [3, 7]: 0 n
- Subjects with Blurred vision [3, 8]: 0 n
- Subjects with Diarrhea [3, 8]: 0 n
- Subjects with Feeling hot [3, 8]: 0 n
- Subjects with Headache [3, 8]: 0 n
- Subjects with Diarrhea [3, 9]: 0 n
- Subjects with Palpitations [3, 9]: 0 n
- Subjects with Nausea ([3]; Study 2 Part 2, tablet (N = 28)): 0 n
- fatigue, females ([3]; after the 400 mg oral dose): 50%
- fatigue, males ([3]; after the 400 mg oral dose): 21%
- tolerability ([3]; all oral doses of solution and tablet): well tolerated
- tolerability ([3]; doses above 400 mg administered orally): not well tolerated
- constriction of rabbit saphenous vein (rabbit saphenous vein [4]): did not constrict
- inhibition of neuronal protein extravasation [5]: significantly inhibit neuronal protein extravasation
